From patent US8084398B2, “Benzoylpyrazoles and herbicide” (Bayer Cropscience AG, priority 2006, dated 2011)

Columns and labels:
[1] = test system: Amaranthus lividus; experiment: Herbicidal efficacy against field weeds, pre-emergence soil spray treatment (Test Example 1); assay type: in vivo; settings: 500 g ai/ha, 2 weeks after treatment, 100% = complete death, 0% = no efficacy
Description: (§1) Test for herbicidal efficacy against field weeds (Pre-emergence soil spray treatment) Preparation of formulation of the active compound
(§2) Carrier: DMF 5 parts by weight
(§3) Emulsifier: Benzyloxy polyglycol ether 1 part by weight
(§4) A suitable formulation of an active compound is obtained as an emulsifiable concentrate by mixing 1 part by weight of the active compound with the stated amounts of the carrier and emulsifier. A prescribed amount of the formulation is diluted with water.
(§5) In a green house, the seeds of field weeds (Amaranthus lividus and Setaria viridis) were inoculated by one species per pot on the surface layer in 16 cm^2 pots filled with field soil (sand loam) and covered with soil. Immediately after the inoculation, the prescribed and diluted solutions of the formulations of respective active compounds prepared according to the above preparation method, were sprayed to the soil. After 2 weeks from the treatment, the herbicidal efficacy of respective active compounds was examined. The evaluation of the herbicidal efficacy was carried out by rating complete death as 100% and as 0% in case of no herbicidal efficacy. In case of showing herbicidal efficacy of 80% or more, such active compounds are evaluated to be practical as herbicides. As typical examples, the study results with Compound Nos. 19 and 96 and those with Comparative compound C-1 are shown in Table 2 below.

[2] = test system: Setaria viridis; experiment: as above; assay type: in vivo; settings: 500 g ai/ha, 2 weeks after treatment, 100% = complete death, 0% = no efficacy
Description: as §1, §2, §3, §4, §5

[3] = test system: Setaria viridis; experiment: Herbicidal efficacy against field weeds, after-emergence stalk and leaf spray treatment (Test Example 2); assay type: in vivo; settings: 2- to 3-leaf stage, 500 g ai/ha, 2 weeks after treatment, 100% = complete death
Description: as §4, §5
Test for herbicidal efficacy against field weeds (After-emerge stalk and leave spray treatment) […]

| Structure (SMILES) | melting point | herbicidal efficacy, Amaranthus lividus [1] | herbicidal efficacy, Setaria viridis [2] | herbicidal efficacy, Setaria viridis [3] |
| --- | --- | --- | --- | --- |
| Cc1nn(C)c(O)c1C(=O)c1ccc(Cl)c(OCCn2cnnn2)c1Cl | 63 to 68 °C | – | – | – |
| CS(=O)(=O)c1ccc(C(=O)C2C(=O)CCCC2=O)c(Cl)c1 [C-1] | – | 70% | 30% | 40% |
